Test systems include Escherichia coli J2210; Escherichia coli JJ2489; Escherichia coli JW0013; Escherichia coli MC1041; Escherichia coli; Escherichia coli BW25113; Escherichia coli JW55034; Bacillus subtilis DB430; Klebsiella pneumoniae; Micrococcus sp. S1.634; Pseudomonas aeruginosa; Staphylococcus aureus.
Holding throughout (assay): ≥ marks a high value that may be exact or a test limit, other limits are often not marked, values filed in µg/mL are converted to µM
The test system of test [1] is Escherichia coli JW0368 ΔsbmA.
Test [2] concerns Escherichia coli JW2778 ΔygdD.
Test [3] relates to Salmonella enterica serovar Tennessee.
In test [4] the test system is Salmonella enterica subsp. enterica serovar Enteritidis MH91989.
Test [5] deals with Salmonella enterica subsp. enterica serovar Infantis.
For test [6], the system named is Salmonella enterica subsp. enterica serovar Newport.
For test [7], the system named is Salmonella typhimurium SL1344.
The test system of test [8] is Acinetobacter baumannii Josh 230.
Test [9] relates to Acinetobacter baumannii Josh 28.
For test [10], the system named is Enterobacter asburiae St. L P23.
The subject of test [11] is Enterobacter cloacae BB2012-181.
Test [12] deals with Enterobacter cloacae BB2013-32.
In test [13] the test system is Enterobacter cloacae St. L P23.
The subject of test [14] is Escherichia coli ARLG-1012.
Test [15] relates to Escherichia coli ATCC 25922.
Test [16] deals with Escherichia coli BB2013-30.
Test [17] concerns Klebsiella aerogenes St. L P63.
For test [18], the system named is Klebsiella pneumoniae BB2009-209.
Test [19] has as its system Klebsiella pneumoniae J3702.
Test [20] deals with Klebsiella pneumoniae Oschner KP-1.
Test [21] has as its system Pseudomonas aeruginosa ATCC 27853.
Test [22] deals with Pseudomonas aeruginosa BB2013-100.
The test system of test [23] is Pseudomonas aeruginosa J4228.
Test [24] deals with Acinetobacter baumannii b-01.
The subject of test [25] is Acinetobacter baumannii b-02.
For test [26], the system named is Acinetobacter baumannii b-03.
Test [27] has as its system Acinetobacter baumannii b-04.
Test [28] concerns Bacillus pumilus CMCC 63202.
The test system of test [29] is Escherichia coli ATCC 8099.
The subject of test [30] is Klebsiella pneumoniae CMCC 46117.
Test [31] concerns Micrococcus luteus CMCC 28001.
Test [32] concerns Pseudomonas aeruginosa CMCC 10104.
Test [33] has as its system Salmonella enterica subsp. enterica serovar Paratyphi B CMCC 50094.
Test [34] concerns Staphylococcus aureus CMCC 26003.
In test [35] the test system is Staphylococcus epidermidis.

In brackets after ≈: the same amount, converted by molar mass. Several values for one entry are separate records, joined by “and”; a condition that tells them apart may be missing. Identical values can stand only once.

Consider `CC(C)C[C@H](NC(=O)[C@H](CCCN=C(N)N)NC(=O)[C@@H]1CCCN1C(=O)[C@H](Cc1cnc[nH]1)NC(=O)[C@@H]1CCCN1C(=O)[C@@H]1CCCN1C(=O)[C@H](CCCN=C(N)N)NC(=O)[C@@H]1CCCN1C(=O)[C@H](CCC(N)=O)NC(=O)[C@@H]1CCCN1C(=O)[C@H](CCCN=C(N)N)NC(=O)[C@H](Cc1ccc(O)cc1)NC(=O)[C@@H](NC(=O)[C@@H]1CCCN1C(=O)[C@H](CCCCN)NC(=O)[C@H](CC(N)=O)NC(=O)[C@H](CC(N)=O)NC(=O)CN)C(C)C)C(=O)O` [GNNKPVYRPQPRPPHPRL], for which the MIC in the test with Escherichia coli J2210 was found to be 0.034 µM (≈ 0.0722 µg/mL); in the test with Escherichia coli JJ2489, 0.034 µM (≈ 0.0722 µg/mL); in the test with Escherichia coli JW0013 it was 0.012 µM (≈ 0.0255 µg/mL); in test [1], 0.096 µM (≈ 0.204 µg/mL); in test [2], 0.024 µM (≈ 0.051 µg/mL); against Escherichia coli MC1041, 0.024 µM (≈ 0.051 µg/mL). Further, the MIC came to 0.048 µM (≈ 0.102 µg/mL) with Escherichia coli; 0.024 µM (≈ 0.051 µg/mL) in test [3]; 0.031 µM (≈ 0.0658 µg/mL) in test [4]; 0.024 µM (≈ 0.051 µg/mL) in [5]; 0.017 µM (≈ 0.0361 µg/mL) in test [6]; 0.034 µM (≈ 0.0722 µg/mL) in test [7].

Turning to `CC[C@H](C)[C@H](NC(=O)[C@H](CCCCN)NC(=O)[C@H](CCCCN)NC(=O)[C@@H](NC(=O)[C@H](C)NC(=O)[C@H](CCCCN)NC(=O)[C@@H](NC(=O)[C@@H](NC(=O)[C@H](CC(C)C)NC(=O)[C@H](CCCCN)NC(=O)[C@H](C)NC(=O)[C@H](Cc1c[nH]c2ccccc12)NC(=O)CN)[C@@H](C)CC)[C@@H](C)O)[C@@H](C)CC)C(N)=O` [GWAKLITKAIKKI], the MIC in test [8] came out at 10.9 µM (≈ 16 µg/mL); in [9] it was 2.72 µM (≈ 4 µg/mL); in [10], 21.8 µM (≈ 32 µg/mL); in [11], 10.9 µM (≈ 16 µg/mL); in test [12] it was 10.9 µM (≈ 16 µg/mL); in [13], 21.8 µM (≈ 32 µg/mL). Also, the MIC in [14] was 2.72 µM (≈ 4 µg/mL); in test [15], 12 µM and 24.1 µM; in test [16], 5.44 µM (≈ 7.99 µg/mL); in the test with Escherichia coli BW25113, 2.72 µM (≈ 4 µg/mL); in the test on Escherichia coli JW55034 it was 2.72 µM (≈ 4 µg/mL); in test [17] it was 10.9 µM (≈ 16 µg/mL). Further, the MIC in test [18] amounted to 21.8 µM (≈ 32 µg/mL); in [19], 10.9 µM (≈ 16 µg/mL); in test [20], 21.8 µM (≈ 32 µg/mL); in [21], 5.44 µM (≈ 7.99 µg/mL); in test [22], 21.8 µM (≈ 32 µg/mL); in test [23] it was 10.9 µM (≈ 16 µg/mL).

`CC[C@H](C)[C@H](NC(=O)[C@H](Cc1ccccc1)NC(=O)[C@H](CO)NC(=O)[C@H](CCCCN)NC(=O)[C@H](Cc1c[nH]c2ccccc12)NC(=O)[C@@H](N)CCCCN)C(=O)N[C@@H](CCCCN)C(=O)N[C@@H](CCCCN)C(=O)N[C@@H](CC(C)C)C(=O)N[C@H](C(=O)N[C@@H](CCCCN)C(=O)N[C@@H](CCCCN)C(=O)N[C@@H](Cc1ccccc1)C(=O)N[C@@H](CC(C)C)C(=O)N[C@@H](Cc1cnc[nH]1)C(=O)N[C@@H](CO)C(=O)N[C@@H](C)C(=O)N[C@@H](CCCCN)C(=O)N[C@@H](CCCCN)C(=O)N[C@@H](Cc1ccccc1)C(N)=O)[C@@H](C)O` [KWKSFIKKLTKKFLHSAKKF]: the MIC in test [24] amounted to 0.321 µM (≈ 0.8 µg/mL); in test [25], 1.25 µM (≈ 3.12 µg/mL); in test [26], 1.3 µM (≈ 3.25 µg/mL); in test [27], 0.641 µM (≈ 1.6 µg/mL); in test [28] it was 0.201 µM (≈ 0.5 µg/mL); against Bacillus subtilis DB430, 0.802 µM (≈ 2 µg/mL). For the same compound, the MIC is 0.201 µM (≈ 0.5 µg/mL) in [29]; 0.802 µM (≈ 2 µg/mL) in test [30]; 0.567 µM (≈ 1.41 µg/mL) against Klebsiella pneumoniae; 0.802 µM (≈ 2 µg/mL) in test [31]; 0.401 µM (≈ 1 µg/mL) against Micrococcus sp. S1.634; 1.6 µM (≈ 4 µg/mL) in [32]. The MIC is 0.641 µM and 1.13 µM in the test with Pseudomonas aeruginosa; 0.802 µM (≈ 2 µg/mL) in test [33]; 0.201 µM (≈ 0.5 µg/mL) in test [34]; 0.401 µM (≈ 1 µg/mL) in the test with Staphylococcus aureus; 0.802 µM (≈ 2 µg/mL) in test [35].

The record behind these values is DBAASP.
